What all share (type): cell-based
The target of test [1] is BaF3 cell lines stably transfected with kinase EGFR L858R/T790M (Homo sapiens, UniProt P00533, T790M/L858R, cells depend on it). Briefly: Growth inhibition of BaF3 cell line stably transfected with kinase EGFR L858R/T790M (MTS). The following applies: 48 h, read-out: growth inhibitory activity IC50, L858R/T790M. The method in brief:
(§1)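 IC50 obtained from MTS-based inhibition after 48 h compound treatment (maximum 10 μM, 8 concentrations).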

Test [2] deals with BaF3 cell lines stably transfected with kinase EGFR Del/T790M/C797S (Homo sapiens, UniProt P00533, T790M/C797S, cells depend on it, form not given). Briefly: Growth inhibition of BaF3 cell line stably transfected with kinase EGFR Del/T790M/C797S (MTS). The following applies: 48 h, read-out: growth inhibitory activity IC50, Del/T790M/C797S. The method in brief: as §1
The target in test [3] is BaF3 cell lines stably transfected with kinase EGFR L858R/T790M/C797S (Homo sapiens, UniProt P00533, T790M/C797S/L858R, cells depend on it). Put plainly: Growth inhibition of BaF3 cell line stably transfected with kinase EGFR L858R/T790M/C797S (MTS). Particulars: 48 h, read-out: growth inhibitory activity IC50, L858R/T790M/C797S. The method in brief: as §1
The target of test [4] is BaF3 cell lines stably transfected with kinase EGFR Del (Homo sapiens, UniProt P00533, cells depend on it, form not given). Put plainly: Growth inhibition of BaF3 cell line stably transfected with kinase EGFR Del (MTS). Particulars: 48 h, read-out: growth inhibitory activity IC50, Del. The method in brief:
as §1

Test [5] deals with BaF3 cell lines stably transfected with kinase EGFR Del/T790M (Homo sapiens, UniProt P00533, T790M, cells depend on it, form not given). Put plainly: Growth inhibition of BaF3 cell line stably transfected with kinase EGFR Del/T790M (MTS). The following applies: 48 h, read-out: growth inhibitory activity IC50, Del/T790M. The method in brief: as §1
The target of test [6] is BaF3 cell lines stably transfected with kinase EGFR L858R (Homo sapiens, UniProt P00533, L858R, cells depend on it). Put plainly: Growth inhibition of BaF3 cell line stably transfected with kinase EGFR L858R (MTS). The following applies: 48 h, read-out: growth inhibitory activity IC50, L858R. The method in brief: as §1

Each structure is given as a SMILES string.

BaF3 cell lines stably transfected with kinase EGFR L858R/T790M, sequence (P00533 whole entry T790M/L858R): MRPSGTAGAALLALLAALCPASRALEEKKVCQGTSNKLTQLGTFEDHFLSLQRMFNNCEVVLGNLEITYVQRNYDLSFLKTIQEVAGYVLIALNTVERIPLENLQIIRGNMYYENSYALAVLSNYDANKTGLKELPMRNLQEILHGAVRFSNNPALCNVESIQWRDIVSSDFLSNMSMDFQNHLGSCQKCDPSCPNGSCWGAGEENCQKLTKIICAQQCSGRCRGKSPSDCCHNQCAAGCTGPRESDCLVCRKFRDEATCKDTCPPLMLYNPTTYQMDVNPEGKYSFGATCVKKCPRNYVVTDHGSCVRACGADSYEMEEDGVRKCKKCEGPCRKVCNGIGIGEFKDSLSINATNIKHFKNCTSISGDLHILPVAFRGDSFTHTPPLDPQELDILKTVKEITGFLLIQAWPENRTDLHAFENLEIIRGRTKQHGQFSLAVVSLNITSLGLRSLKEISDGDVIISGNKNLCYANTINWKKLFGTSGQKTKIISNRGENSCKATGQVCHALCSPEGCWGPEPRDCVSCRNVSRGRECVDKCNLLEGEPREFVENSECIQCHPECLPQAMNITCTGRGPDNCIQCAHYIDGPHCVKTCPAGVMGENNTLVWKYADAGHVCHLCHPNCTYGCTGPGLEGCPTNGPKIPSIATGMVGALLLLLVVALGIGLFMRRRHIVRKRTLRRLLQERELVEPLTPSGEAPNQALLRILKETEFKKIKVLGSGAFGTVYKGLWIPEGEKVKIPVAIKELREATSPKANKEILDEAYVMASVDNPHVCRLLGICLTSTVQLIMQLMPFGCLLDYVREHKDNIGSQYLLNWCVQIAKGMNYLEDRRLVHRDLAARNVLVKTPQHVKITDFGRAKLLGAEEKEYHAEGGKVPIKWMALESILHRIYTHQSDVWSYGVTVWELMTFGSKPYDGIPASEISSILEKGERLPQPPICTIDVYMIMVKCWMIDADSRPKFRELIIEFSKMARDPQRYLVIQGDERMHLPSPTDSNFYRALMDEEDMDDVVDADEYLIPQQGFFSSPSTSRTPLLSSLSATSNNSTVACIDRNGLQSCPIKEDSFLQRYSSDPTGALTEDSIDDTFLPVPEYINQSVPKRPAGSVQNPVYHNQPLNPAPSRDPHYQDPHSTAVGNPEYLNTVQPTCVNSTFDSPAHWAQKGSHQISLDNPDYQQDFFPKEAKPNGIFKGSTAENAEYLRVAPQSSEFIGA
BaF3 cell lines stably transfected with kinase EGFR L858R/T790M/C797S, sequence (P00533 whole entry T790M/C797S/L858R): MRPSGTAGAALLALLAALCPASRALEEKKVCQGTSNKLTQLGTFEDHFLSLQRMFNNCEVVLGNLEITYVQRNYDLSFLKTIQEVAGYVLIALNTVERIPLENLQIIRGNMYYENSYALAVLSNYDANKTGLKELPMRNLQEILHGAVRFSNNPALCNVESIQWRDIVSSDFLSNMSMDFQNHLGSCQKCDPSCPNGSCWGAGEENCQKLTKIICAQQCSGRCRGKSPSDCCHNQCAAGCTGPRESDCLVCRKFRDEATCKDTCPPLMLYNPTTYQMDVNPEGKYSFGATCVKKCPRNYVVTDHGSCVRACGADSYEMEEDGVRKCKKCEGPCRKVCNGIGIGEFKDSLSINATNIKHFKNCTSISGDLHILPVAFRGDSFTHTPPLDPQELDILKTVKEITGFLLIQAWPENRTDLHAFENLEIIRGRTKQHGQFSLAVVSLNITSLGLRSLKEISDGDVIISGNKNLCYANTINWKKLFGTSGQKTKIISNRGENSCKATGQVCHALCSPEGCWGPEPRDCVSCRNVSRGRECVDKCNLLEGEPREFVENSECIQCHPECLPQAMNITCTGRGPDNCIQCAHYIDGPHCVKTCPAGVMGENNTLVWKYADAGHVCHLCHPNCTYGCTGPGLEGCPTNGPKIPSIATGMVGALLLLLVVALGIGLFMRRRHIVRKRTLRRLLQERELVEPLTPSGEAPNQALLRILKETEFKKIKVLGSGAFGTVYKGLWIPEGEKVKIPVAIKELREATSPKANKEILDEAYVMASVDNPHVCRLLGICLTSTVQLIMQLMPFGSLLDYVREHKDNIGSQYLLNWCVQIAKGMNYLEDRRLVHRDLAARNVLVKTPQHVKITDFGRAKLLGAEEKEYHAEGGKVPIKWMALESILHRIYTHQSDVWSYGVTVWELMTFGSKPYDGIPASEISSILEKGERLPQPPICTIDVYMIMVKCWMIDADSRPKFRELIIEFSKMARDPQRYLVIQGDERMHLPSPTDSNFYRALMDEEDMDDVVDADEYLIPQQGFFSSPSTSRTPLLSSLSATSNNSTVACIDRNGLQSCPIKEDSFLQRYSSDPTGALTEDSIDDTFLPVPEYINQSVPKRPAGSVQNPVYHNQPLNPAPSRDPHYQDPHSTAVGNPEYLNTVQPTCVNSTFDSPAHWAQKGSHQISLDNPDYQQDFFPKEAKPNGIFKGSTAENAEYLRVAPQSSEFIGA
BaF3 cell lines stably transfected with kinase EGFR Del, sequence (P00533 with tags, fused parts or gaps DEL746-750): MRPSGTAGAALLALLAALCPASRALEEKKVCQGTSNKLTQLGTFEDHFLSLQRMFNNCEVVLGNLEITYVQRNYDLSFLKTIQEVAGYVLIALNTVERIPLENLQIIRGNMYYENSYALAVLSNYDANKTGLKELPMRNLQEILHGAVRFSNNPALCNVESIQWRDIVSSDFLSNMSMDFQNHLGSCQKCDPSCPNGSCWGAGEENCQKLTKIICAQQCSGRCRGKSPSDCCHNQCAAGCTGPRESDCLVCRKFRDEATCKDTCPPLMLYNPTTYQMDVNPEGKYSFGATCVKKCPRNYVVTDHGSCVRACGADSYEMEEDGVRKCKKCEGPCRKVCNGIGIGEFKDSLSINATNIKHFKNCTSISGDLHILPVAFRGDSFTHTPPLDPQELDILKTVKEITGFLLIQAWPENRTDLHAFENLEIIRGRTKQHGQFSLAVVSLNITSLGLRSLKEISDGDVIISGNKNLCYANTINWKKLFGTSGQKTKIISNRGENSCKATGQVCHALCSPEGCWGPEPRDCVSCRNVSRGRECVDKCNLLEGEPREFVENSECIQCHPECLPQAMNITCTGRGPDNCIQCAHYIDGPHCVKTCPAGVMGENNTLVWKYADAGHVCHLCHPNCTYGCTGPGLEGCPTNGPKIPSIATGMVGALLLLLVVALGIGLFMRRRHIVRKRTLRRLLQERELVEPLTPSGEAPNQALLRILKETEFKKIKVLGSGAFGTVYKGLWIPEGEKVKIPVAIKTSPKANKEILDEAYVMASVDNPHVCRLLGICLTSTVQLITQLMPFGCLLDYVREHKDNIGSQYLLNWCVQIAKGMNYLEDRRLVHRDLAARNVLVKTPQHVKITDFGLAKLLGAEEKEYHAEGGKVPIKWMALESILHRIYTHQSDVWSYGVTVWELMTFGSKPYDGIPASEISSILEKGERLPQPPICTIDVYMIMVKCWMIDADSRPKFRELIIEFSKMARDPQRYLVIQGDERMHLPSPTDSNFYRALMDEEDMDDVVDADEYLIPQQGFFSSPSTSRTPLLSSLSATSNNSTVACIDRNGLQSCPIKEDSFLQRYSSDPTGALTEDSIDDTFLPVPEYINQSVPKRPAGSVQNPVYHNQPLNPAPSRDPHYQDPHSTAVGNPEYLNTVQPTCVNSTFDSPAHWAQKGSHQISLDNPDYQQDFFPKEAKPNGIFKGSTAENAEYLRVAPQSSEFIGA
BaF3 cell lines stably transfected with kinase EGFR Del/T790M/C797S, sequence (P00533 with tags, fused parts or gaps DEL746-750/T790M/C797S, form open): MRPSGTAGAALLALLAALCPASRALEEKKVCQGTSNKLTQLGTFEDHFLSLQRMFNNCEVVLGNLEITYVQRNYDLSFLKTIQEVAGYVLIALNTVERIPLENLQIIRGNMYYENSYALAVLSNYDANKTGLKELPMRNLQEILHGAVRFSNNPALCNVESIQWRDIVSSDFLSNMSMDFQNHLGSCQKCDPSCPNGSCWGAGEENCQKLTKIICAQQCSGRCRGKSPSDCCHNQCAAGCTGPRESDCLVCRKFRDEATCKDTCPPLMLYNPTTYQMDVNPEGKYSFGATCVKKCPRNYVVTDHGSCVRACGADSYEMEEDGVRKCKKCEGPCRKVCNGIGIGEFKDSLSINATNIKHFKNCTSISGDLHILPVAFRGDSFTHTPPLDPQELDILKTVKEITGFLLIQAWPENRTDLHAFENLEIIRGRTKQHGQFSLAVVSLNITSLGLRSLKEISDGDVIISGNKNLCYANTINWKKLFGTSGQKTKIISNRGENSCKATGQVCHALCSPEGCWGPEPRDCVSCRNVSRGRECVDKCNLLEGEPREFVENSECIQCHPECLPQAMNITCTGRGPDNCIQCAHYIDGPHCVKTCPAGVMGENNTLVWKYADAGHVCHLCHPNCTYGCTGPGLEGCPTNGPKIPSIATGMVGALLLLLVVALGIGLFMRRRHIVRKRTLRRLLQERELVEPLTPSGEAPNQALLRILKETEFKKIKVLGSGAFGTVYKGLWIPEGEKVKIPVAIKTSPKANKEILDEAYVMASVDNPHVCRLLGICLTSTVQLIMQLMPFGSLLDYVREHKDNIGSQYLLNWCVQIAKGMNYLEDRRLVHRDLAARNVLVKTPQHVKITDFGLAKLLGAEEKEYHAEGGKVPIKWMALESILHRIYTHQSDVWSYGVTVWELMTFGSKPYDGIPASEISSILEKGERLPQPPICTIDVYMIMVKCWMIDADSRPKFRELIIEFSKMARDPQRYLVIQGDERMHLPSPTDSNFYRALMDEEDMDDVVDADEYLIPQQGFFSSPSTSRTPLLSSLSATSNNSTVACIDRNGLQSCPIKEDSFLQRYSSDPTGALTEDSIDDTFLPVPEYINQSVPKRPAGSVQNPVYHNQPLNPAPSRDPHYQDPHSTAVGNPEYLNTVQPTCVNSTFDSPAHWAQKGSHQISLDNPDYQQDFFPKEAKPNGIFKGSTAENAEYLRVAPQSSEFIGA

Turning to `C=Cc1cnc(Nc2cc(CC)c(N3CCC(N4CCN(C)CC4)CC3)cc2OC)nc1Nc1ccc2nccnc2c1S(C)(=O)=O` [III-1], the GI50 in test [1] was in the range of 50 to 500 nM; in test [2] it was 500 to 2500 nM; in test [3], 500 to 2500 nM; in test [4] it was 50 to 500 nM; in test [5], 50 to 500 nM; in test [6] it was 500 to 2500 nM.
For `C=Cc1cnc(Nc2cc(CC)c(N3CCC(N(C)C)CC3)cc2OC)nc1Nc1ccc2nccnc2c1S(C)(=O)=O` [III-2], the GI50 in test [1] is 50 to 500 nM; in test [2], 500 to 2500 nM; in test [3], 50 to 500 nM; in test [4], 500 to 2500 nM; in test [5] it was 50 to 500 nM; in test [6], 500 to 2500 nM.
As for `C=Cc1cnc(Nc2cc(CC)c(N3CCC(N(C)C)C3)cc2OC)nc1Nc1ccc2nccnc2c1S(C)(=O)=O` (stereo not drawn) [III-3], the GI50 in test [1] fell in the range of 50 to 500 nM; in test [2], 500 to 2500 nM; in test [3], 500 to 2500 nM; in test [4], 500 to 2500 nM; in test [5], 500 to 2500 nM; in test [6], 500 to 2500 nM.
For the molecule `C=Cc1cnc(Nc2cc(CC)c(N3CCN(C)CC3)cc2OC)nc1Nc1ccc2nccnc2c1S(C)(=O)=O` [III-4], the GI50 in test [1] was 50 to 500 nM; in test [2], 500 to 2500 nM; in test [3] it was 500 to 2500 nM; in test [4], 500 to 2500 nM; in test [5], 500 to 2500 nM; in test [6], 500 to 2500 nM.
`C=Cc1cnc(Nc2cc(CC)c(N3CCC(N4CCN(C)CC4)CC3)cc2OC(F)(F)F)nc1Nc1ccc2nccnc2c1S(C)(=O)=O` [III-5]: the GI50 in test [1] fell in the range of 50 to 500 nM; in test [2], 500 to 2500 nM; in test [3], 500 to 2500 nM; in test [4], 500 to 2500 nM; in test [5], 500 to 2500 nM; in test [6], 500 to 2500 nM.
On to `C=Cc1cnc(Nc2cc(CC)c(N3CCC(N4CCN(C)CC4)CC3)cc2OC)nc1Nc1ccc2nccnc2c1S(=O)(=O)C(C)C` [III-6], for which the GI50 in test [1], in test [2], in test [3], in test [4], in test [5] and in test [6] was 50 to 500 nM each time.
For the molecule `C=Cc1cnc(Nc2cc(C)c(N3CCC(N4CCN(C)CC4)CC3)cc2OC)nc1Nc1ccc2nccnc2c1S(C)(=O)=O` [III-9], the GI50 in test [1] was 50 to 500 nM; in test [2], 500 to 2500 nM; in test [3], 500 to 2500 nM; in test [4], 500 to 2500 nM; in test [5] it was 500 to 2500 nM; in test [6], 500 to 2500 nM.
`C=Cc1cnc(Nc2cc(CC)c(N3CCC(N4CCN(C)CC4)CC3)nc2OC)nc1Nc1ccc2nccnc2c1S(C)(=O)=O` [III-10]: the GI50 was 50 to 500 nM in test [1]; 500 to 2500 nM in test [2]; 500 to 2500 nM in test [3]; 500 to 2500 nM in test [4]; 500 to 2500 nM in test [5]; 500 to 2500 nM in test [6].
As to `C=Cc1cnc(Nc2cc(C(C)C)c(N3CCC(N4CCN(C)CC4)CC3)cc2OC)nc1Nc1ccc2nccnc2c1S(C)(=O)=O` [III-11], the GI50 in test [1] fell in the range of 50 to 500 nM; in test [2], 500 to 2500 nM; in test [3] it was 500 to 2500 nM; in test [4] it was 500 to 2500 nM; in test [5], 500 to 2500 nM; in test [6], 500 to 2500 nM.
Turning to `C=Cc1cnc(Nc2cc(C3CC3)c(N3CCC(N4CCN(C)CC4)CC3)cc2OC)nc1Nc1ccc2nccnc2c1S(C)(=O)=O` [III-12], the GI50 in test [1] lay in the range of 50 to 500 nM; in test [2], 500 to 2500 nM; in test [3], 50 to 500 nM; in test [4] it was 50 to 500 nM; in test [5], 50 to 500 nM; in test [6], 500 to 2500 nM.
With `C=Cc1cnc(Nc2cc(CC3CC3)c(N3CCC(N4CCN(C)CC4)CC3)cc2OC)nc1Nc1ccc2nccnc2c1S(C)(=O)=O` [III-13], the GI50 in test [1] is 50 to 500 nM; in test [2] it was 500 to 2500 nM; in test [3] it was 500 to 2500 nM; in test [4], 50 to 500 nM; in test [5], 50 to 500 nM; in test [6], 500 to 2500 nM.
`C=Cc1cnc(Nc2ccc(N3CCC(N4CCN(C)CC4)CC3)c(CC)c2)nc1Nc1ccc2nccnc2c1S(C)(=O)=O` [III-14]: the GI50 was in the range of 50 to 500 nM in test [1]; 500 to 2500 nM in test [2]; 50 to 500 nM in test [3]; 50 to 500 nM in test [4]; 50 to 500 nM in test [5]; 50 to 500 nM in test [6].
Regarding `C=Cc1cnc(Nc2cc(F)c(N3CCC(N4CCN(C)CC4)CC3)c(F)c2)nc1Nc1ccc2nccnc2c1S(C)(=O)=O` [III-16], the GI50 in test [1] is 500 to 2500 nM; in test [2] it was 500 to 2500 nM; in test [3], 500 to 2500 nM; in test [4], 500 to 2500 nM; in test [5], 50 to 500 nM; in test [6] it was 500 to 2500 nM.
Turning to `C=Cc1cnc(Nc2ccc(N3CCC(N4CCN(C)CC4)CC3)cc2OC)nc1Nc1ccc2nccnc2c1S(=O)(=O)C(C)C` [III-18], the GI50 in test [1] was 50 to 500 nM; in test [2] it was 500 to 2500 nM; in test [3], 500 to 2500 nM; in test [4] it was 500 to 2500 nM; in test [5], 500 to 2500 nM; in test [6], 50 to 500 nM.
As to `C=Cc1cnc(Nc2cc(C)c(N3CCC(N4CCN(C)CC4)CC3)cc2OC)nc1Nc1ccc2nccnc2c1S(=O)(=O)C(C)C` [III-19], the GI50 lay in the range of 50 to 500 nM in test [1]; 500 to 2500 nM in test [2]; 50 to 500 nM in test [3]; 50 to 500 nM in test [4]; 50 to 500 nM in test [5]; 50 to 500 nM in test [6].
On to `C=Cc1cnc(Nc2cc(C(C)C)c(N3CCC(N4CCN(C)CC4)CC3)cc2OC)nc1Nc1ccc2nccnc2c1S(=O)(=O)C(C)C` [III-20], for which the GI50 was 50 to 500 nM in test [1]; 500 to 2500 nM in test [2]; 500 to 2500 nM in test [3]; 500 to 2500 nM in test [4]; 500 to 2500 nM in test [5]; 50 to 500 nM in test [6].
With `C=Cc1cnc(Nc2cc(C3CC3)c(N3CCC(N4CCN(C)CC4)CC3)cc2OC)nc1Nc1ccc2nccnc2c1S(=O)(=O)C(C)C` [III-21], the GI50 in test [1], in test [2], in test [3], in test [4], in test [5] and in test [6] was 50 to 500 nM in each case.
For the molecule `C=Cc1cnc(Nc2ccc(N3CCC(N4CCN(C)CC4)CC3)cc2OC)nc1Nc1ccc2nccnc2c1S(=O)(=O)NC` [IV-1], the GI50 in test [1] fell in the range of 50 to 500 nM; in test [2] it was 500 to 2500 nM; in test [3], 500 to 2500 nM; in test [4], 500 to 2500 nM; in test [5], 500 to 2500 nM; in test [6], 500 to 2500 nM.
For the molecule `C=Cc1cnc(Nc2cc(C)c(N3CCC(N4CCN(C)CC4)CC3)cc2OC)nc1Nc1ccc2nccnc2c1S(=O)(=O)NC` [IV-2], the GI50 in test [1], in test [2], in test [3], in test [4], in test [5] and in test [6] was 50 to 500 nM each time.
`C=Cc1cnc(Nc2cc(CC)c(N3CCC(N4CCN(C)CC4)CC3)cc2OC)nc1Nc1ccc2nccnc2c1S(=O)(=O)NC` [IV-3]: the GI50 in test [1], in test [2], in test [3], in test [4], in test [5] and in test [6] was 50 to 500 nM each time.
As for `C=Cc1cnc(Nc2cc(CC)c(N3CCC(N4CCN(C)CC4)CC3)nc2OC)nc1Nc1ccc2nccnc2c1S(=O)(=O)NC` [IV-4], the GI50 is 50 to 500 nM in test [1]; 500 to 2500 nM in test [2]; 50 to 500 nM in test [3]; 500 to 2500 nM in test [4]; 50 to 500 nM in test [5]; 500 to 2500 nM in test [6].
Consider `C=Cc1cnc(Nc2cc(CC)c(N3CCC(N4CCN(C)CC4)CC3)cc2OC(F)(F)F)nc1Nc1ccc2nccnc2c1S(=O)(=O)NC` [IV-5], for which the GI50 in test [1] fell in the range of 50 to 500 nM; in test [2], 500 to 2500 nM; in test [3], 500 to 2500 nM; in test [4] it was 500 to 2500 nM; in test [5] it was 50 to 500 nM; in test [6], 500 to 2500 nM.
`C=Cc1cnc(Nc2cc(C(C)C)c(N3CCC(N4CCN(C)CC4)CC3)cc2OC)nc1Nc1ccc2nccnc2c1S(=O)(=O)NC` [IV-6]: the GI50 was in the range of 50 to 500 nM in test [1]; 500 to 2500 nM in test [2]; 500 to 2500 nM in test [3]; 500 to 2500 nM in test [4]; 50 to 500 nM in test [5]; 500 to 2500 nM in test [6].
With `C=Cc1cnc(Nc2cc(C3CC3)c(N3CCC(N4CCN(C)CC4)CC3)cc2OC)nc1Nc1ccc2nccnc2c1S(=O)(=O)NC` [IV-7], the GI50 in test [1], in test [2], in test [3], in test [4], in test [5] and in test [6] was 50 to 500 nM in each case.
As for `C=Cc1cnc(Nc2cc(CC3CC3)c(N3CCC(N4CCN(C)CC4)CC3)cc2OC)nc1Nc1ccc2nccnc2c1S(=O)(=O)NC` [IV-8], the GI50 in test [1] fell in the range of 50 to 500 nM; in test [2], 50 to 500 nM; in test [3], 50 to 500 nM; in test [4], 50 to 500 nM; in test [5] it was 50 to 500 nM; in test [6], 500 to 2500 nM.

Source of the values: patent publication US12679822B2, “Alkenyl pyrimidine compound, preparation method therefor, and application thereof” (Hongyun Biotech Co., Ltd., priority 2020, dated 2026).
